Reference: patent US20100028485A1, “TALAROMYCES EMERSONII ENZYME SYSTEMS” (priority 2006, published 2010)

Experiments:
Format in all cases: biochemical, Talaromyces emersonii
[1] = tested on: EG VI; experiment: Effects of metal ions, chemical modification reagents, detergents and potential inhibitors on EG VI; conditions: for EGVI activity after protection experiment (control = 100.0): 1st incubation (30 min) enzyme + reagent, 2nd incubation (30 min) + NBS; for EV VI activity, Enzyme + reagent (control = 100.0): Preincubation of enzyme with reagent for 30 min (50 C) prior to addition of substrate; for EGVI activity, Substrate + reagent (control = 100.0): Preincubation of substrate with reagent for 30 min (50 C) prior to addition of enzyme; for increase in activity of EG VI: 1 mM metal ion, relative to control without metal ion
Protocol: (§1) Substrate specificity on various polysaccharides and synthetic glycosides was evaluated by 15 measuring activity against a wide variety of carbohydrates (BBG, lichenan, CMC, other polysaccharides and synthetic glycosides) using the normal β-glucanase assay procedure. • Effects Of Metal Ions, Chemical Modification Reagents And Potential Inhibitors A range of monovalent, divalent and heavy metal ions, at final assay concentrations of 1.0 mM, were investigated for their potential effects on the activities of EG V, EG VI and EG VII, by incubating the enzymes with the chemicals and then conducting the normal enzyme assay. Finally, the inhibitor effects of glycosides, such as disaccharides, lactones and flavanoid glycosides on the purified enzymes were examined. Specified concentrations of each glycoside were included in normal assay cocktails and residual activity determined by comparison with controls (no glycoside present).
(§2) Activity was expressed as a % relative to a control (no metal ion present in incubation mixture). In general, heavy metal ions are thought to inactivate enzymes by forming covalent salts with cysteine, histidine or carboxyl groups. […] A selection of reagents known to modify amino acid R-groups in proteins were tested for their effects on EG V, EG VI and EG VII, both in the absence and presence of substrate (substrate-protective effects could be observed in this manner) (see Table 6).

[2] = tested on: EG V; experiment: Effects of metal ions, chemical modification reagents, detergents and potential inhibitors on EG V; conditions: for EG V activity after protection experiment (control = 100.0): 1st incubation (30 min) enzyme + reagent, 2nd incubation (30 min) + NBS; for EG V activity, Enzyme + reagent (control = 100.0): Preincubation of enzyme with reagent for 30 min (50 C) prior to addition of substrate; for EG V activity, Substrate + reagent (control = 100.0): Preincubation of substrate with reagent for 30 min (50 C) prior to addition of enzyme
Protocol: as §1, §2

[3] = tested on: EG VII; experiment: Effects of metal ions, chemical modification reagents, detergents and potential inhibitors on EG VII; conditions: for EG VII activity after protection experiment (control = 100.0): 1st incubation (30 min) enzyme + reagent, 2nd incubation (30 min) + NBS; for EG VII activity, Enzyme + reagent (control = 100.0): Preincubation of enzyme with reagent for 30 min (50 C) prior to addition of substrate; for EG VII activity, Substrate + reagent (control = 100.0): Preincubation of substrate with reagent for 30 min (50 C) prior to addition of enzyme
Protocol: as §1, §2

[4] = tested on: EG V, EG VI and EG VII; experiment: Effects of metal ions, reagents, phenolics and glycosides stated for all three enzymes; conditions: for effect of phenolic substances on enzyme activity: pre-incubation of enzyme with compound in the absence of substrate; for effect of metal ion on activity of all three enzymes: 1 mM metal ion
Protocol: as §1, §2

[5] = 1 mM metal ion, relative to control without metal ion

SMILES	EV VI activity, Enzyme + reagent (control = 100.0) [1]	EGVI activity, Substrate + reagent (control = 100.0) [1]	EG V activity, Enzyme + reagent (control = 100.0) [2]	EG V activity, Substrate + reagent (control = 100.0) [2]	EG VII activity, Enzyme + reagent (control = 100.0) [3]	EG VII activity, Substrate + reagent (control = 100.0) [3]	other results
OC(CS)C(O)CS (racemic) [DL-DTT]	514.3	915.5	218.9	264.3	575.0	348.6	EGVI activity after protection experiment (control = 100.0) [1]: 140.0; EG V activity after protection experiment (control = 100.0) [2]: 204.3; EG VII activity after protection experiment (control = 100.0) [3]: 94.6
[Cl-].c1ccc(-c2nn(-c3ccccc3)[n+](-c3ccccc3)n2)cc1 [2,3,5-Triphenyltetrazolium Chloride]	97.6	97.4	97.5	89.1	98.5	100.0	
Oc1cc(O)c2c(c1)O[C@H](c1ccc(O)c(O)c1)[C@@H](O)C2 [(+)catechin]							effect of phenolic substances on enzyme activity [4]: did not have a marked inhibitory effect
Oc1cc(O)c2c(c1)O[C@H](c1ccc(O)c(O)c1)[C@H](O)C2 [(−)epicatechin]							effect of phenolic substances on enzyme activity [4]: did not have a marked inhibitory effect
[Ag+] [Ag^+]							effect of metal ion on activity of all three enzymes [4]: markedly decreased activity
[Ba+2] [Ba^2+]							increase in activity of EG VI [1]: 37.6%; decrease in activity of EG V [2, 5]: 16.5%
[Ca+2] [Ca^2+]							increase in activity of EG VI [1]: 10%; decrease in activity of EG V [2, 5]: 21.5-24.6%; enhancement of EG VII activity by SO4^2− salt relative to corresponding Cl^− salt ([3]; 1 mM): ~2 fold
N[C@@H](CS)C(=O)O [Cysteine]	170.4	370.20	163.8	237.8	196.5	367.7	EGVI activity after protection experiment (control = 100.0) [1]: 217.0; EG V activity after protection experiment (control = 100.0) [2]: 117.0; EG VII activity after protection experiment (control = 100.0) [3]: 167.0
C[S+](C)[O-] [Dimethylsuphoxide]	124.3	141.7	125.5	93.6	194.0	100.0	
O[C@H](CS)[C@@H](O)CS [Dithioerythritol]	657.2	917.90	270.6	271.9	773.8	360.9	
[Hg+2] [Hg^2+]							effect of metal ion on activity of all three enzymes [4]: Almost total inhibition
[K+] [K^+]							increase in activity of EG VII [3]: 20%
[Mo] [Mo^6+]							effect of metal ion on activity of all three enzymes [4]: enhanced the activity
O=C1CCC(=O)N1Br [N-Bromosuccinimide (NBS), N-Bromosuccinimide]	0.0	0.0	0.0	0.0	0.0	0.0	EGVI activity after protection experiment (control = 100.0) [1]: 0.0; EG V activity after protection experiment (control = 100.0) [2]: 0.0; EG VII activity after protection experiment (control = 100.0) [3]: 0.0
CCN1C(=O)C=CC1=O [N-ethylmaleimide]							inhibition by sulphydryl reagents ([4]; in the presence or absence of substrate): little or no inhibition
[Na+] [Na^+]							increase in activity of EG V [2, 5]: > 39%
[BH4-].[Na+] [Sodium borohydride]	125.0	104.8	96.1	81.5	194.0	82.8	
[Na+].[O-][I+3]([O-])([O-])[O-] [Sodium periodate]	357.1	1001.2	181.0	283.3	300.0	469.7	
O=C(O)CS [Thioglycolic acid]	187.1	269.0	211.1	148.1	188.1	150.0	
CC[n+]1ccc(-c2cccc(S(=O)(=O)[O-])c2)o1 [Woodward's Reagent K]	280.0	266.7	162.7	121.1	305.9	143.0	
